The values that follow come from US10780090B2, “Heteroaryl compounds useful as inhibitors of SUMO activating enzyme” (Millennium Pharmaceuticals, Inc., priority 2014, dated 2020).

For the assay, the target named is recombinant human SAE enzyme (Homo sapiens (Human), UniProt Q9UBT2). Briefly: SAE HTRF enzyme assay. Format: biochemical. Conditions: for Percent Inhibition: Concentration 0.111 μM; for IC50: class symbols A/B/C. The gist of the method: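 This HTRF format monitors Sumo-Flag–Ubc9-GST thioester formation catalysed by 0.11 nM human SAE with 0.5 μM ATP over 105 min at 24° C. Inhibition is expressed at a single concentration or as IC50.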
recombinant human SAE enzyme, sequence (Q9UBT2 whole entry): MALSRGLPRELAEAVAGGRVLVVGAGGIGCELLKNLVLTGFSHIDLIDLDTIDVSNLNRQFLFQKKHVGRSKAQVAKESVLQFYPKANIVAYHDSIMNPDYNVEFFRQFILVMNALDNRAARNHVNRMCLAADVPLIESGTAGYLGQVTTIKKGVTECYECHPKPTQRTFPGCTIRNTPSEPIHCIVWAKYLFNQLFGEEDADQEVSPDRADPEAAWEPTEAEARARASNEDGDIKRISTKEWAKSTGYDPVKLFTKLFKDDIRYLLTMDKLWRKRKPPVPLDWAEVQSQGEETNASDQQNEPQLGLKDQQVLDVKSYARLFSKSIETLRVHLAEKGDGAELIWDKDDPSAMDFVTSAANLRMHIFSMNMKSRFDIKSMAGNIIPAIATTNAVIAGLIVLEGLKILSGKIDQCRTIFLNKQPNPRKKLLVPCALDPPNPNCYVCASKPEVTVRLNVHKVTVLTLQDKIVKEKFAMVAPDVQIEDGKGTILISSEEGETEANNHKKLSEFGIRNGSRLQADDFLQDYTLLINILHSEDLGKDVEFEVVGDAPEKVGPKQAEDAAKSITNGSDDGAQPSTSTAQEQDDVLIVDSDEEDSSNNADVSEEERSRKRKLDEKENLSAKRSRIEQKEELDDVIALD
recombinant human SAE enzyme, sequence (Q9UBE0 whole entry partner): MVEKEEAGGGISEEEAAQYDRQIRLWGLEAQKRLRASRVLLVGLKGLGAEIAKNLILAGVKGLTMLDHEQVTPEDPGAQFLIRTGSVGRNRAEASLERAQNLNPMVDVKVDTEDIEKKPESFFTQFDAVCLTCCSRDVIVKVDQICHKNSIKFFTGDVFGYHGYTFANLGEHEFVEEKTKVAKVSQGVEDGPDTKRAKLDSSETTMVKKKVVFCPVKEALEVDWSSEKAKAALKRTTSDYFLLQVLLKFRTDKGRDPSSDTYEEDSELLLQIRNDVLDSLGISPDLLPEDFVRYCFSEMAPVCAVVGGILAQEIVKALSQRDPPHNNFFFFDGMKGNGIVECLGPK

Bounds are passed on as bounds.

As to `CO[C@H](c1cccc(Cl)c1)c1cc(C(=O)c2cncnc2N[C@@H]2C[C@H](COS(N)(=O)=O)[C@@H](O)C2)sc1Cl` (single isomer, unassigned) [I-90b, [(1R,2S,4R)-4-{[5-({5-chloro-4-[(R)-(3-chlorophenyl)(methoxy)methyl]-2-thienyl}carbonyl)pyrimidin-4-yl]amino}-2-hydroxycyclopentyl]methyl sulfamate or [(1R,2S,4R)-4-{[5-({5-chloro-4-[(S)-(3-chlorophenyl)(methoxy)methyl]-2-thienyl}carbonyl)pyrimidin-4-yl]amino}-2-hydroxycyclopentyl]methyl sulfamate], the “Percent Inhibition” value stood at 92 and the half-maximal inhibitory concentration (IC50) is 10 to 100 nM.
On the same counts, the results for `CC(O)(c1cccc(Cl)c1)c1cc(C(=O)c2cncnc2N[C@@H]2C[C@H](COS(N)(=O)=O)[C@@H](O)C2)sc1Cl` (single isomer, unassigned) [I-102a, [(1R,2S,4R)-4-{[5-({5-chloro-4-[(1R)-1-(3-chlorophenyl)-1-hydroxyethyl]-2-thienyl}carbonyl)pyrimidin-4-yl]amino}-2-hydroxycyclopentyl]methyl sulfamate or [(1R,2S,4R)-4-{[5-({5-chloro-4-[(1S)-1-(3-chlorophenyl)-1-hydroxyethyl]-2-thienyl}carbonyl)pyrimidin-4-yl]amino}-2-hydroxycyclopentyl]methyl sulfamate] are 36 and 100 to 1000 nM.
On the same counts, the results for `CC(O)(c1cccc(Cl)c1)c1cc(C(=O)c2cncnc2N[C@@H]2C[C@H](COS(N)(=O)=O)[C@@H](O)C2)sc1Cl` (single isomer, unassigned) [I-102b, [(1R,2S,4R)-4-{[5-({5-chloro-4-[(1R)-1-(3-chlorophenyl)-1-hydroxyethyl]-2-thienyl}carbonyl)pyrimidin-4-yl]amino}-2-hydroxycyclopentyl]methyl sulfamate or [(1R,2S,4R)-4-{[5-({5-chloro-4-[(1S)-1-(3-chlorophenyl)-1-hydroxyethyl]-2-thienyl}carbonyl)pyrimidin-4-yl]amino}-2-hydroxycyclopentyl]methyl sulfamate] are 97 and less than 10 nM.
The like results for `CC(c1cccc(Cl)c1)c1csc(C(=O)c2cncnc2N[C@@H]2C[C@H](COS(N)(=O)=O)[C@@H](O)C2)c1` (single isomer, unassigned) [I-117a, [(1R,2S,4R)-4-{[5-({4-[(1S)-1-(3-chlorophenyl)ethyl]-2-thienyl}carbonyl)pyrimidin-4-yl]amino}-2-hydroxycyclopentyl]methyl sulfamate or [(1R,2S,4R)-4-{[5-({4-[(1R)-1-(3-chlorophenyl)ethyl]-2-thienyl}carbonyl)pyrimidin-4-yl]amino}-2-hydroxycyclopentyl]methyl sulfamate] were, in that order, 73 and 10 to 100 nM.
As for `CC(c1cccc(Cl)c1)c1csc(C(=O)c2cncnc2N[C@@H]2C[C@H](COS(N)(=O)=O)[C@@H](O)C2)c1` (single isomer, unassigned) [I-117b, [(1R,2S,4R)-4-{[5-({4-[(1S)-1-(3-chlorophenyl)ethyl]-2-thienyl}carbonyl)pyrimidin-4-yl]amino}-2-hydroxycyclopentyl]methyl sulfamate or [(1R,2S,4R)-4-{[5-({4-[(1R)-1-(3-chlorophenyl)ethyl]-2-thienyl}carbonyl)pyrimidin-4-yl]amino}-2-hydroxycyclopentyl]methyl sulfamate], the “Percent Inhibition” value is 97 and the IC50 was less than 10 nM.
Regarding `Cc1sc(C(=O)c2cncnc2N[C@@H]2C[C@H](COS(N)(=O)=O)[C@@H](O)C2)cc1[C@H](C)c1cccc(Cl)c1` (single isomer, unassigned) [I-135a, [(1R,2S,4R)-4-{[5-({4-[(1R)-1-(3-chlorophenyl)ethyl]-5-methyl-2-thienyl}carbonyl)pyrimidin-4-yl]amino}-2-hydroxycyclopentyl]methyl sulfamate or [(1R,2S,4R)-4-{[5-({4-[(1S)-1-(3-chlorophenyl)ethyl]-5-methyl-2-thienyl}carbonyl)pyrimidin-4-yl]amino}-2-hydroxycyclopentyl]methyl sulfamate], the “Percent Inhibition” value amounted to 82 and the 50% inhibitory concentration (IC50) fell in the range of 10 to 100 nM.
`Cc1sc(C(=O)c2cncnc2N[C@@H]2C[C@H](COS(N)(=O)=O)[C@@H](O)C2)cc1[C@H](C)c1cccc(Cl)c1` (single isomer, unassigned) [I-135b, [(1R,2S,4R)-4-{[5-({4-[(1R)-1-(3-chlorophenyl)ethyl]-5-methyl-2-thienyl}carbonyl)pyrimidin-4-yl]amino}-2-hydroxycyclopentyl]methyl sulfamate or [(1R,2S,4R)-4-{[5-({4-[(1S)-1-(3-chlorophenyl)ethyl]-5-methyl-2-thienyl}carbonyl)pyrimidin-4-yl]amino}-2-hydroxycyclopentyl]methyl sulfamate]: the “Percent Inhibition” value is given as 95 and the IC50 was less than 10 nM.
The like results for `NS(=O)(=O)OC[C@H]1C[C@@H](Nc2ncncc2C(=O)c2cc(Cl)c([C@H](O)c3cccc(Cl)c3)s2)C[C@@H]1O` (single isomer, unassigned) [I-151a, [(1R,2S,4R)-4-{[5-({4-chloro-5-[(R)-(3-chlorophenyl)(hydroxy)methyl]-2-thienyl}carbonyl)pyrimidin-4-yl]amino}-2-hydroxycyclopentyl]methyl sulfamate or [(1R,2S,4R)-4-{[5-({4-chloro-5-[(S)-(3-chlorophenyl)(hydroxy)methyl]-2-thienyl}carbonyl)pyrimidin-4-yl]amino}-2-hydroxycyclopentyl]methyl sulfamate] were, in that order, 80 and 10 to 100 nM.
For `NS(=O)(=O)OC[C@H]1C[C@@H](Nc2ncncc2C(=O)c2cc(Cl)c([C@H](O)c3cccc(Cl)c3)s2)C[C@@H]1O` (single isomer, unassigned) [I-151b, [(1R,2S,4R)-4-{[5-({4-chloro-5-[(R)-(3-chlorophenyl)(hydroxy)methyl]-2-thienyl}carbonyl)pyrimidin-4-yl]amino}-2-hydroxycyclopentyl]methyl sulfamate or [(1R,2S,4R)-4-{[5-({4-chloro-5-[(S)-(3-chlorophenyl)(hydroxy)methyl]-2-thienyl}carbonyl)pyrimidin-4-yl]amino}-2-hydroxycyclopentyl]methyl sulfamate], the “Percent Inhibition” value is listed as 93 and the IC50 was less than 10 nM.
The like results for `CN(C)[C@H](c1cccc(Cl)c1)c1csc(C(=O)c2cncnc2N[C@@H]2C[C@H](COS(N)(=O)=O)[C@@H](O)C2)c1` (single isomer, unassigned) [I-153a, [(1R,2S,4R)-4-{[5-({4-[(R)-(3-chlorophenyl)(dimethylamino)methyl]-2-thienyl}carbonyl)pyrimidin-4-yl]amino}-2-hydroxycyclopentyl]methyl sulfamate or [(1R,2S,4R)-4-{[5-({4-[(S)-(3-chlorophenyl)(dimethylamino)methyl]-2-thienyl}carbonyl)pyrimidin-4-yl]amino}-2-hydroxycyclopentyl]methyl sulfamate] were, in that order, 30 and 100 to 1000 nM.
As to `CN(C)[C@H](c1cccc(Cl)c1)c1csc(C(=O)c2cncnc2N[C@@H]2C[C@H](COS(N)(=O)=O)[C@@H](O)C2)c1` (single isomer, unassigned) [I-153b, [(1R,2S,4R)-4-{[5-({4-[(R)-(3-chlorophenyl)(dimethylamino)methyl]-2-thienyl}carbonyl)pyrimidin-4-yl]amino}-2-hydroxycyclopentyl]methyl sulfamate or [(1R,2S,4R)-4-{[5-({4-[(S)-(3-chlorophenyl)(dimethylamino)methyl]-2-thienyl}carbonyl)pyrimidin-4-yl]amino}-2-hydroxycyclopentyl]methyl sulfamate], the “Percent Inhibition” value is 92 and the half-maximal inhibitory concentration (IC50) is less than 10 nM.
On the same counts, the results for `Cc1sc(C(=O)c2cncnc2N[C@@H]2C[C@H](COS(N)(=O)=O)[C@@H](O)[C@H]2O)cc1[C@@H]1NCCc2ccc(Br)cc21` (single isomer, unassigned) [I-247a, [(1R,2R,3S,4R)-4-{[5-({4-[(1R)-7-bromo-1,2,3,4-tetrahydroisoquinolin-1-yl]-5-methyl-2-thienyl}carbonyl)pyrimidin-4-yl]amino}-2,3-dihydroxycyclopentyl]methyl sulfamate or [(1R,2R,3S,4R)-4-{[5-({4-[(1S)-7-bromo-1,2,3,4-tetrahydroisoquinolin-1-yl]-5-methyl-2-thienyl}carbonyl)pyrimidin-4-yl]amino}-2,3-dihydroxycyclopentyl]methyl sulfamate] are 100 and less than 10 nM.
The like results for `Cc1sc(C(=O)c2cncnc2N[C@@H]2C[C@H](COS(N)(=O)=O)[C@@H](O)[C@H]2O)cc1[C@@H]1NCCc2ccc(Br)cc21` (single isomer, unassigned) [I-247b, [(1R,2R,3S,4R)-4-{[5-({4-[(1R)-7-bromo-1,2,3,4-tetrahydroisoquinolin-1-yl]-5-methyl-2-thienyl}carbonyl)pyrimidin-4-yl]amino}-2,3-dihydroxycyclopentyl]methyl sulfamate or [(1R,2R,3S,4R)-4-{[5-({4-[(1S)-7-bromo-1,2,3,4-tetrahydroisoquinolin-1-yl]-5-methyl-2-thienyl}carbonyl)pyrimidin-4-yl]amino}-2,3-dihydroxycyclopentyl]methyl sulfamate] were, in that order, 98 and less than 10 nM.

As a reminder, the IC50 is the concentration at which inhibition is half-maximal.
